Values after ≈ are worked out from the molar mass of the structure shown.
Assays:
physchem [1] = assay: physchem
physchem [2] = details: pH 7.4
physchem [3] = details: pH 1.2
physchem [4] = details: pH 6.8
physchem [5] = assay: physchem; remark: listed apart in the source
physchem [6] = details: pH 6.8; remark: listed apart in the source
physchem [7] = assay: physchem; remark: listed apart in the source
physchem [8] = details: pH 1.2; remark: listed apart in the source
physchem [9] = details: pH 7.4; remark: listed apart in the source

`CCCCCCCCCCCC1=C(O)C(=O)C=C(O)C1=O` [EMBELIN] gave a solubility thermodynamic (physchem [1]) of 1.02 µM (≈ 0.301 µg/mL), a solubility thermodynamic at 4 h (physchem [2]; PBS) of 1.7 µM (≈ 0.5 µg/mL) and a solubility thermodynamic at 4 h (physchem [3]; simulated gastric fluid) of 1.7 µM (≈ 0.5 µg/mL). For the same molecule, the solubility thermodynamic at 4 h (physchem [4]; simulated intestinal fluid) was 1.7 µM (≈ 0.5 µg/mL) and the solubility thermodynamic at 4 h (physchem [5]; water) was 1.7 µM (≈ 0.5 µg/mL).
Molecule `OC(Cn1cncn1)(Cn1cncn1)c1ccc(F)cc1F` [FLUCONAZOLE] has a solubility thermodynamic (physchem [1]) of 0.331 µM (≈ 0.101 µg/mL), a solubility thermodynamic at 4 h (physchem [2]; PBS) of 0.324 µM (≈ 0.0991 µg/mL) and a solubility thermodynamic at 24 h (physchem [6]; simulated intestinal fluid) of 0.891 µM (≈ 0.273 µg/mL). It also gave a solubility thermodynamic at 4 h (physchem [3]; simulated gastric fluid) of 1.62 µM (≈ 0.497 µg/mL), a solubility thermodynamic at 4 h (physchem [4]; simulated intestinal fluid) of 0.324 µM (≈ 0.0991 µg/mL) and a solubility thermodynamic at 4 h (physchem [5]; water) of 0.324 µM (≈ 0.0991 µg/mL). The solubility thermodynamic at 24 h (physchem [7]; water) was 0.537 µM (≈ 0.164 µg/mL), the solubility thermodynamic at 24 h (physchem [8]; simulated gastric fluid) was 0.851 µM (≈ 0.261 µg/mL) and the solubility thermodynamic at 24 h (physchem [9]; PBS) was 0.468 µM (≈ 0.143 µg/mL).
Molecule `CCC(=O)O[C@]1(C(=O)SCF)[C@H](C)C[C@H]2[C@@H]3C[C@H](F)C4=CC(=O)C=C[C@]4(C)[C@@]3(F)[C@@H](O)C[C@@]21C` [FLUTICASONE PROPIONATE] has a solubility thermodynamic (physchem [1]) of 0.102 µM (≈ 0.0512 µg/mL), a solubility thermodynamic at 4 h (physchem [2]; PBS) of 0.2 µM (≈ 0.0999 µg/mL) and a solubility thermodynamic at 24 h (physchem [6]; simulated intestinal fluid) of 0.407 µM (≈ 0.204 µg/mL). For the same molecule, the solubility thermodynamic at 4 h (physchem [3]; simulated gastric fluid) was 1 µM (≈ 0.501 µg/mL), the solubility thermodynamic at 4 h (physchem [4]; simulated intestinal fluid) was 1 µM (≈ 0.501 µg/mL) and the solubility thermodynamic at 4 h (physchem [5]; water) was 0.2 µM (≈ 0.0999 µg/mL). For the same molecule, the solubility thermodynamic at 24 h (physchem [7]; water) was 0.0195 µM (≈ 0.00976 µg/mL), the solubility thermodynamic at 24 h (physchem [8]; simulated gastric fluid) was 0.2 µM (≈ 0.0999 µg/mL) and the solubility thermodynamic at 24 h (physchem [9]; PBS) was 0.01 µM (≈ 0.00501 µg/mL).
Molecule `C=C(C)[C@@H](CC=C(C)C)C[C@@]12C[C@@H](CC=C(C)C)C(C)(C)[C@@](CC=C(C)C)(C(=O)C(C(=O)c3ccc(O)c(O)c3)=C1O)C2=O` [GARCINOL] has a solubility thermodynamic at 4 h (physchem [2]; PBS) of 1.66 µM (≈ 1 µg/mL), a solubility thermodynamic at 4 h (physchem [3]; simulated gastric fluid) of 0.832 µM (≈ 0.501 µg/mL) and a solubility thermodynamic at 4 h (physchem [4]; simulated intestinal fluid) of 6.61 µM (≈ 3.98 µg/mL). It also gave a solubility thermodynamic at 4 h (physchem [5]; water) of 1.66 µM (≈ 1 µg/mL).
Work on `NNC(=O)c1ccncc1` [ISONIAZID] yielded a solubility thermodynamic at 4 h (physchem [2]; PBS) of 589 µM (≈ 80.8 µg/mL), a solubility thermodynamic at 4 h (physchem [3]; simulated gastric fluid) of 589 µM (≈ 80.8 µg/mL) and a solubility thermodynamic at 4 h (physchem [4]; simulated intestinal fluid) of 288 µM (≈ 39.6 µg/mL). It also gave a solubility thermodynamic at 4 h (physchem [5]; water) of 589 µM (≈ 80.8 µg/mL).
Molecule `COc1c2occc2c(OC)c2c(=O)cc(C)oc12` [KHELLIN] has a solubility thermodynamic (physchem [1]) of 97.7 µM (≈ 25.4 µg/mL), a solubility thermodynamic at 4 h (physchem [2]; PBS) of 77.6 µM (≈ 20.2 µg/mL) and a solubility thermodynamic at 24 h (physchem [6]; simulated intestinal fluid) of 58.9 µM (≈ 15.3 µg/mL). It also gave a solubility thermodynamic at 4 h (physchem [3]; simulated gastric fluid) of 30.9 µM (≈ 8.04 µg/mL), a solubility thermodynamic at 4 h (physchem [4]; simulated intestinal fluid) of 30.9 µM (≈ 8.04 µg/mL) and a solubility thermodynamic at 4 h (physchem [5]; water) of 77.6 µM (≈ 20.2 µg/mL). It also gave a solubility thermodynamic at 24 h (physchem [7]; water) of 100 µM (≈ 26 µg/mL), a solubility thermodynamic at 24 h (physchem [8]; simulated gastric fluid) of 97.7 µM (≈ 25.4 µg/mL) and a solubility thermodynamic at 24 h (physchem [9]; PBS) of 72.4 µM (≈ 18.9 µg/mL).
Work on `O=c1c2cc(O)c(O)cc2oc2cc(O)c([C@@H]3O[C@H](CO)[C@@H](O)[C@H](O)[C@H]3O)c(O)c12` [MANGIFERIN] yielded a solubility thermodynamic at 4 h (physchem [2]; PBS) of 47.9 µM (≈ 20.2 µg/mL), a solubility thermodynamic at 4 h (physchem [3]; simulated gastric fluid) of 19.1 µM (≈ 8.05 µg/mL) and a solubility thermodynamic at 4 h (physchem [4]; simulated intestinal fluid) of 19.1 µM (≈ 8.05 µg/mL). For the same molecule, the solubility thermodynamic at 4 h (physchem [5]; water) was 47.9 µM (≈ 20.2 µg/mL).
`Cc1cnc(NC(=O)C2=C(O)c3ccccc3S(=O)(=O)N2C)s1` [MELOXICAM] showed a solubility thermodynamic (physchem [1]) of 2.29 µM (≈ 0.805 µg/mL), a solubility thermodynamic at 4 h (physchem [2]; buffer) of 35.5 µM (≈ 12.5 µg/mL) and a solubility thermodynamic at 24 h (physchem [6]; simulated gi fluid) of 28.8 µM (≈ 10.1 µg/mL). It also gave a solubility thermodynamic at 4 h (physchem [3]; simulated gi fluid) of 1.41 µM (≈ 0.496 µg/mL), a solubility thermodynamic at 4 h (physchem [4]; simulated gi fluid) of 22.9 µM (≈ 8.05 µg/mL) and a solubility thermodynamic at 4 h (physchem [5]; buffer) of 11.5 µM (≈ 4.03 µg/mL). It also gave a solubility thermodynamic at 24 h (physchem [7]; buffer) of 11 µM (≈ 3.85 µg/mL), a solubility thermodynamic at 24 h (physchem [8]; simulated gi fluid) of 0.0407 µM (≈ 0.0143 µg/mL) and a solubility thermodynamic at 24 h (physchem [9]; buffer) of 21.9 µM (≈ 7.69 µg/mL).
For `COc1ccc2[nH]c([S+]([O-])Cc3ncc(C)c(OC)c3C)nc2c1` (configuration not stated) [OMEPRAZOLE], the solubility thermodynamic (physchem [1]) was 145 µM (≈ 49.9 µg/mL), the solubility thermodynamic at 4 h (physchem [2]; PBS) was 229 µM (≈ 79.1 µg/mL) and the solubility thermodynamic at 4 h (physchem [3]; simulated gastric fluid) was 437 µM (≈ 151 µg/mL). It also gave a solubility thermodynamic at 4 h (physchem [4]; simulated intestinal fluid) of 57.5 µM (≈ 19.9 µg/mL) and a solubility thermodynamic at 4 h (physchem [5]; water) of 229 µM (≈ 79.1 µg/mL).
Molecule `O=C(/C=C/C=C/c1ccc2c(c1)OCO2)N1CCCCC1` [PIPERINE] has a solubility thermodynamic (physchem [1]) of 14.1 µM (≈ 4.03 µg/mL), a solubility thermodynamic at 4 h (physchem [2]; PBS) of 28.2 µM (≈ 8.04 µg/mL) and a solubility thermodynamic at 4 h (physchem [3]; simulated gastric fluid) of 43.7 µM (≈ 12.5 µg/mL). It also gave a solubility thermodynamic at 4 h (physchem [4]; simulated intestinal fluid) of 70.8 µM (≈ 20.2 µg/mL) and a solubility thermodynamic at 4 h (physchem [5]; water) of 70.8 µM (≈ 20.2 µg/mL).
`NC(=O)c1cnccn1` [PYRAZINAMIDE] showed a solubility thermodynamic at 4 h (physchem [2]; PBS) of 5370 µM (≈ 661 µg/mL), a solubility thermodynamic at 4 h (physchem [3]; simulated gastric fluid) of 5620 µM (≈ 692 µg/mL) and a solubility thermodynamic at 4 h (physchem [4]; simulated intestinal fluid) of 7940 µM (≈ 978 µg/mL). For the same molecule, the solubility thermodynamic at 4 h (physchem [5]; water) was 5750 µM (≈ 708 µg/mL).
Molecule `CC[C@H]1OC(=O)[C@H](C)[C@@H](O[C@H]2C[C@@](C)(OC)[C@@H](O)[C@H](C)O2)[C@H](C)[C@@H](O[C@@H]2O[C@H](C)C[C@H](N(C)C)[C@H]2O)[C@](C)(O)C[C@@H](C)/C(=N\OCOCCOC)[C@H](C)[C@@H](O)[C@]1(C)O` [ROXITHROMYCIN] has a solubility thermodynamic at 4 h (physchem [2]; PBS) of 1.2 µM (≈ 1.01 µg/mL), a solubility thermodynamic at 4 h (physchem [3]; simulated gastric fluid) of 0.603 µM (≈ 0.504 µg/mL) and a solubility thermodynamic at 4 h (physchem [4]; simulated intestinal fluid) of 0.603 µM (≈ 0.504 µg/mL). The solubility thermodynamic at 4 h (physchem [5]; water) was 0.603 µM (≈ 0.504 µg/mL).
`[H]/N=C(/N)N[C@H]1[C@H](O)[C@@H](O)[C@H](O[C@@H]2O[C@@H](C)[C@](O)(C=O)[C@H]2O[C@@H]2O[C@@H](CO)[C@H](O)[C@@H](O)[C@@H]2NC)[C@@H](N/C(N)=N\[H])[C@@H]1O` [STREPTOMYCIN] gave a solubility thermodynamic at 4 h (physchem [2]; PBS) of 0.851 µM (≈ 0.495 µg/mL), a solubility thermodynamic at 4 h (physchem [3]; simulated gastric fluid) of 0.851 µM (≈ 0.495 µg/mL) and a solubility thermodynamic at 4 h (physchem [4]; simulated intestinal fluid) of 0.851 µM (≈ 0.495 µg/mL). For the same molecule, the solubility thermodynamic at 4 h (physchem [5]; water) was 0.851 µM (≈ 0.495 µg/mL).
`CN(C/C=C/C#CC(C)(C)C)Cc1cccc2ccccc12.Cl` [TERBINAFINE HYDROCHLORIDE] showed a solubility thermodynamic at 4 h (physchem [2]; PBS) of 0.302 µM, a solubility thermodynamic at 24 h (physchem [6]; simulated intestinal fluid) of 0.617 µM and a solubility thermodynamic at 4 h (physchem [3]; simulated gastric fluid) of 245 µM. For the same molecule, the solubility thermodynamic at 4 h (physchem [4]; simulated intestinal fluid) was 1.51 µM, the solubility thermodynamic at 4 h (physchem [5]; water) was 245 µM and the solubility thermodynamic at 24 h (physchem [7]; water) was 229 µM. The solubility thermodynamic at 24 h (physchem [8]; simulated gastric fluid) was 155 µM and the solubility thermodynamic at 24 h (physchem [9]; PBS) was 0.676 µM.
For `CCS(=O)(=O)CCn1c([N+](=O)[O-])cnc1C` [TINIDAZOLE], the solubility thermodynamic at 4 h (physchem [2]; PBS) was 603 µM (≈ 149 µg/mL), the solubility thermodynamic at 4 h (physchem [3]; simulated gastric fluid) was 162 µM (≈ 40.1 µg/mL) and the solubility thermodynamic at 4 h (physchem [4]; simulated intestinal fluid) was 324 µM (≈ 80 µg/mL). For the same molecule, the solubility thermodynamic at 4 h (physchem [5]; water) was 324 µM (≈ 80 µg/mL).

From ChEMBL document CHEMBL3400005, “Thermodynamic equilibrium solubility measurements in simulated fluids by 96-well plate method in early drug discovery” (Bioorg Med Chem Lett, 2015)
